Measurements taken from patent US7304084B2, “6-[(4,5-Dihydro-1H-imidazol-2-yl)amino]-7-methyl-1H-benzimidazole-4-carbonitrile and its preferred salt” (The Board of Regents of the University of Nebraska, priority 2003, dated 2007).
In brackets after ≈: the same amount, converted by molar mass. Where a name gives a salt, the structure may show the parent alone. Read-outs that look alike come from different tables or passages of the source.

Columns and labels:
[1] = Solubility in water at ambient temperature (saturated solution, supernatant by quantitative HPLC); type: physicochemical
Experimental: One such technique is to prepare a saturated solution of the salt form by shaking a suspension of the salt form in water, until a saturated solution is obtained. The saturated solution is then centrifuged and the concentration of the supernatant is determined by quantitative HPLC analysis. A suitable HPLC method is described in Example 1.

[2] = Ames Test dose/response studies; type: cell-based; conditions: impurity (2) present in compound (1) and its various salt forms
Description: [drawing 10] is produced in pharmaceutically unacceptable levels using these previous methods. Based on dose/response studies using an Ames Test, the mutagenic impurity (2) is shown to elicit a positive response when present at level about 1 ppm (parts per million) in 6-[(4,5-Dihydro-1H-imidazol-2-yl)amino-]-7-methyl-1H-benzimidazole-4-carbonitrile (1) and its various salt forms. Low levels of this phenazine impurity can be detected by those methods well known in the art such as HPLC with fluorescence detection. Suitable examples of such assays are described in Examples 1, 2, and 3 herein. A suitable preparation of labeled ^15N4-2,3,7-Triamino-4,6-dimethyl-1,9-phenazinedicarbonitrile is described in Example 4 herein. A suitable preparation of non-labeled 2,3,7-Triamino-4,6-dimethyl-1,9-phenazinedicarbonitrile is described in Example 19 herein. III. Methods of Making Intermediate of Formula (II)

SMILES: CC(=O)O.Cc1c(NC2=NCCN2)cc(C#N)c2nc[nH]c12 [Acetate Salt Form, 6-[(4,5-Dihydro-1H-imidazol-2-yl)amino-]-7-methyl-1H-benzimidazole-4-carbonitrile, Acetic Acid Salt (1:1)]
- solubility in water [1]: about 135 mg/mL

SMILES: Cc1c(N=C2NCCN2)cc(C#N)c2[nH]cnc12 [Free Base Form, 6-[(4,5-Dihydro-1H-imidazol-2-yl)amino-]-7-methyl-1H-benzimidazole-4-carbonitrile]
- solubility ([1]; water, thermodynamic from solid): ~400 µg/mL (≈ 1660 µM)

SMILES: Cc1c(NC2=NCCN2)cc(C#N)c2nc[nH]c12 [Sulfate Salt Form, 6-[(4,5-Dihydro-1H-imidazol-2-yl)amino-]-7-methyl-1H-benzimidazole-4-carbonitrile, reference compound]
- solubility in water ([1]; water, ambient temperature): about 4 mg/mL

SMILES: Cc1c(N)cc(C#N)c2nc3c(C#N)c(N)c(N)c(C)c3nc12 [compound 2, 2,3,7-triamino-4,6-dimethyl-1,9-phenazinedicarbonitrile]
- level of the impurity at which a positive response is elicited in the Ames Test [2]: about 1 ppm
